We go through 13 compounds from ChEMBL document CHEMBL1201862, “PubChem BioAssay data set” (2004).

Assay in all cases: DTP human tumour cell line panel, 48 h
Assay [1] deals with ACHN.
For assay [2], the system named is CCRF-CEM.
The subject of assay [3] is HCC 2998.
For assay [4], the system named is HCT-116.
In assay [5] the test system is HCT-15.
Assay [6] relates to K562.
Assay [7] has as its system LOX IMVI.
In assay [8] the test system is M14.
Assay [9] relates to NCI-H226.
The subject of assay [10] is SF-539.
Assay [11] has as its system SK-OV-3.
The subject of assay [12] is SR.
In assay [13] the test system is SW-620.
Assay [14] relates to UACC-257.
The test system of assay [15] is CAKI-1.
Assay [16] deals with HOP-92.

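Method: 48-hour compound exposure of cells in 96-well plates, five concentrations, linear interpolation of endpoints. At the GI50, growth is halved.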 Active and inactive are the calls of the source. Rule as the data show it: active = GI50 up to about 1.1 µM and inactive = higher.

For `CC(=O)OCCOCNC(=S)N/N=C/c1cc(Br)cs1`, the GI50 (commonly the concentration at which growth is held to half of that of the control) was > 100 µM (inactive) in assay [1]; > 100 µM (inactive) in assay [2]; > 100 µM (inactive) in assay [3]; > 100 µM (inactive) in assay [4]; greater than 100 µM in assay [5]; > 100 µM (inactive) in assay [6]. For the same compound, the GI50 in [7], in assay [8], in assay [9], in assay [10], in assay [11] and in assay [12] was > 100 µM (inactive) throughout. Also, the GI50 in [13] and in assay [14] was > 100 µM (inactive) in each case.

With `CCOC(=O)/C=C1\CCCC12OCCO2`, the GI50 in assay [1] was > 100 µM (inactive); in assay [15], > 100 µM (inactive); in assay [2], > 100 µM (inactive); in [3] it was > 100 µM (inactive); in assay [4], 54.1 µM (inactive); in [5], greater than 100 µM. Also, the GI50 in assay [6] was > 100 µM (inactive); in assay [8], > 100 µM (inactive); in assay [9] it was > 100 µM (inactive); in [10] it was > 100 µM (inactive); in [11], > 100 µM (inactive); in assay [12] it was 25.8 µM (inactive). Moreover, the GI50 in assay [13] and in assay [14] was > 100 µM (inactive) in each case.

Turning to `Cc1cc(N(CCC#N)S(=O)(=O)c2ccccc2)ccc1C=O`, the GI50 in [1] was > 100 µM (inactive); in assay [15], > 100 µM (inactive); in assay [2], > 100 µM (inactive); in [3] it was > 100 µM (inactive); in assay [4] it was > 100 µM (inactive); in assay [5], greater than 100 µM. Besides, the GI50 in assay [6], in assay [7], in [8], in assay [9], in assay [10] and in assay [11] was > 100 µM (inactive) in each case. The GI50 in assay [12], in assay [13] and in [14] was > 100 µM (inactive) each time.

`NC(N)=NN/C(=C1/N=c2ccc([N+](=O)[O-])cc2=NC1=O)C(O)c1ccco1` (stereo not given): the GI50 in assay [1] was > 100 µM (inactive); in [15], > 100 µM (inactive); in [2], 67.1 µM (inactive); in assay [3], > 100 µM (inactive); in [4] it was > 100 µM (inactive); in [5], greater than 100 µM. For the same compound, the GI50 was > 100 µM (inactive) in assay [16]; 54.3 µM (inactive) in assay [6]; > 100 µM (inactive) in assay [7]; > 100 µM (inactive) in assay [8]; > 100 µM (inactive) in [9]; > 100 µM (inactive) in assay [10]. The GI50 in [11], in [12], in assay [13] and in assay [14] was > 100 µM (inactive) each time.

Turning to `COc1cc(/C=C2/C(=O)N(C(=O)OCC(C)C)C(Cc3cc(OC)c(OC)c(C)c3OC)C(=O)N2Cc2ccccc2)c(OC)c(C)c1OC` (stereo not given), the GI50 was > 100 µM (inactive) in [1]; > 100 µM (inactive) in assay [15]; 21.3 µM (inactive) in [2]; > 100 µM (inactive) in assay [3]; 20.2 µM (inactive) in assay [4]; 4.74 µM (inactive) in assay [16]. Moreover, the GI50 is 19.2 µM (inactive) in assay [6]; > 100 µM (inactive) in [7]; 69.3 µM (inactive) in [8]; 2.56 µM (inactive) in [9]; > 100 µM (inactive) in [10]; > 100 µM (inactive) in assay [11]. Also, the values for the GI50 in assay [12], in assay [13] and in assay [14] were 25.1 µM (inactive), > 100 µM (inactive) and 15.9 µM (inactive), respectively.

On to `O=S(=O)(N/N=C/c1cccc(/C=N/NS(=O)(=O)c2ccccc2)c1)c1ccccc1`, for which the GI50 is 68.7 µM (inactive) in assay [1]; 76.4 µM (inactive) in assay [2]; > 100 µM (inactive) in assay [3]; 83.9 µM (inactive) in assay [4]; 80.5 µM in assay [5]; 38.9 µM (inactive) in assay [16]. Further, the GI50 in [6] is 60.4 µM (inactive); in assay [7] it was 30 µM (inactive); in assay [8] it was > 100 µM (inactive); in assay [9] it was > 100 µM (inactive); in assay [10], > 100 µM (inactive); in assay [11], > 100 µM (inactive). In addition, the GI50 in assay [12] is 58.1 µM (inactive); in assay [14] it was 39.3 µM (inactive).

On to `NC(=O)C(=O)C1C(=O)N(c2ccccc2)N=C1N` (stereo not given), for which the GI50 was 49.4 µM (inactive) in assay [1]; > 100 µM (inactive) in assay [15]; > 100 µM (inactive) in assay [3]; > 100 µM (inactive) in assay [4]; greater than 100 µM in assay [5]; > 100 µM (inactive) in assay [16]. Moreover, the GI50 in [6], in assay [7], in [8], in assay [9], in [10] and in assay [11] was > 100 µM (inactive) each time. The GI50 in [12], in assay [13] and in assay [14] was > 100 µM (inactive) each time.

Consider `Cc1ccc(/N=N/c2c(C)nn(-c3ccccc3)c2-c2ccccc2)c(Br)c1`, for which the GI50 is 53.8 µM (inactive) in assay [1]; > 100 µM (inactive) in assay [15]; 21 µM (inactive) in assay [2]; 61.8 µM (inactive) in [3]; 12.6 µM (inactive) in [4]; 28.2 µM in [5]. For the same compound, the GI50 in assay [16] was 40 µM (inactive); in assay [6], 25.4 µM (inactive); in assay [7], 37.2 µM (inactive); in assay [8], > 100 µM (inactive); in assay [9] it was > 100 µM (inactive); in [10], 20.2 µM (inactive). Besides, the GI50 in [11] is > 100 µM (inactive); in assay [12], 6.21 µM (inactive); in [13], 63.5 µM (inactive); in assay [14] it was 79.8 µM (inactive).

On to `Cc1ccccc1NC(=O)C(=O)Cc1nc2ccccc2s1`, for which the GI50 is > 100 µM (inactive) in assay [1]; > 100 µM (inactive) in [15]; > 100 µM (inactive) in [2]; > 100 µM (inactive) in assay [3]; > 100 µM (inactive) in assay [4]; greater than 100 µM in [5]. Besides, the GI50 in assay [16], in assay [6], in assay [7], in [8], in assay [9] and in assay [10] was > 100 µM (inactive) each time. The GI50 in [11], in assay [12], in assay [13] and in [14] was > 100 µM (inactive) each time.

For `CCC1CCCCN1CC(C(C)=O)C(c1ccccc1)c1c(O)c2ccccc2oc1=O` (stereo not given), the GI50 in assay [1] is > 100 µM (inactive); in assay [15], > 100 µM (inactive); in assay [2], > 100 µM (inactive); in assay [4], > 100 µM (inactive); in [5] it was greater than 100 µM; in [6], > 100 µM (inactive). For the same compound, the GI50 in assay [7] is > 100 µM (inactive); in assay [8], > 100 µM (inactive); in assay [9], 18 µM (inactive); in assay [10], > 100 µM (inactive); in assay [11] it was > 100 µM (inactive); in [12], 80.7 µM (inactive). Also, the GI50 in assay [13] and in [14] was > 100 µM (inactive) each time.

Turning to `Cc1[nH]c2ccccc2c1C1Cc2ccccc2N1C(=O)/C(Cl)=C/c1ccccc1` (stereo not given), the GI50 in [1] was 98.9 µM (inactive); in assay [15], 50.6 µM (inactive); in assay [2], > 73.1 µM (inactive); in assay [3], > 100 µM (inactive); in [4], 36.5 µM (inactive); in [5] it was greater than 100 µM. In addition, the GI50 in [16] is > 100 µM (inactive); in assay [6] it was 70.3 µM (inactive); in assay [7], > 100 µM (inactive); in [8], > 100 µM (inactive); in assay [9] it was > 69 µM (inactive); in assay [10], 40.9 µM (inactive). The GI50 in assay [11] is > 100 µM (inactive); in assay [12], 29.2 µM (inactive); in assay [13], > 100 µM (inactive); in assay [14] it was > 100 µM (inactive).

With `COC(=O)c1ccccc1N1C(=O)Cc2ccccc2C1=O`, the GI50 in assay [1] was > 100 µM (inactive); in assay [3] it was > 100 µM (inactive); in assay [4] it was > 10 µM (inactive); in [5], greater than 100 µM; in assay [6], > 100 µM (inactive); in assay [9], > 100 µM (inactive). Besides, the GI50 in assay [10] was 75.3 µM (inactive); in [11], 42.9 µM (inactive); in assay [12], > 100 µM (inactive); in assay [13], > 100 µM (inactive); in assay [14], > 100 µM (inactive).

As for `CC1C=CC(C)C2(O)C(=O)NC(O)C12` (stereo not given), the GI50 in assay [1] was > 100 µM (inactive); in assay [15] it was > 100 µM (inactive); in [2], > 100 µM (inactive); in assay [3] it was > 100 µM (inactive); in assay [4], > 100 µM (inactive); in [5], greater than 100 µM. Besides, the GI50 in [6], in assay [8], in assay [9], in [10], in assay [11] and in assay [12] was > 100 µM (inactive) in each case. The GI50 in assay [13] and in assay [14] was > 100 µM (inactive) each time.
